Entries after “also recorded” stand apart in the source; their conditions may differ. Marks after values point to notes of the source that are not given here.
system: PDGF secretion by CHO cells producing rPDGF (CRL 9359/CRL9360); test: Sandwich ELISA for PDGF in supernatant of CHO cells cultured with test peptide; type: cell-based, Chinese Hamster; conditions: 6 mM peptide in 1A media; day 12 or sooner; 1A media post-culture value subtracted
Method: To identify peptides in a particular library which positively affected cell expression and secretion, each test peptide was added to a well containing a monolayer of chinese hamster ovary cells. The selected cells were anchorage-dependent CHO cells known to secrete platelet derived growth factor, which were initially grown on the tissue culture surfaces using a media with serum. After the monolayer was established, a chemically defined base media and a single test peptide were added to each well. In the present work, secretion of PDGF was assessed in the presence and absence of peptides from the library by collecting supernatant from each well and performing an ELISA specific for PDGF on the supernatant. The output was the absorbance at 492 nm. Secretion was evaluated in a basal medium rich in amino acids, the necessary vitamins, metals, carbon source and concensus CHO culture factors. PDGF levels were compared to known standards spiked into the media used for culture.
CHO cells are the most widely used animal cell lines in the field of biotechnology for the production of therapeutically important pharmaceuticals (Martin et al, REVIEW, J. of Biotechnology. Progress 1998 14, 807-833). The Chinese Hamster Ovary Cell Lines producing rPDGF (CRL 9359/CRL9360) were obtained from the American Type Culture Collection, 12301 Parklawn Drive, Rockville, Md. 20852. The depositor was Amgen Inc. of Thousand Oaks, Calif. Further details about the cell lines and expressed products can be found in U.S. Pat. No. 5,175,255.
Cells were propagated in DMEM/FI2 media with 5% serum at 37° C. between 5-7% CO2. Passages were limited to 5 prior to seeding and PDGF expression was monitored by western blot and ELISA. Cells were routinely seeded at a density of approximately 1×10^4 cells per 20 ml culture media that was placed in a 250 ml canted neck polystyrene tissue culture treated flask (Becton Dickinson). Cells were cultured to confluency and trypsinized to yield cells for seeding.
1A Media was used as a PDGF negative control (pre-culture), to hydrate the 40 ng PDGF standard (pre-culture), to hydrate test peptides (pre-culture) and to normalize all other test and control PDGF results (post-culture). The 1A media was prepared by adding the following components to a 500 ml bottle of DMEM/F12 (GIBCO cat. No. 11330-032): 2.5 ml of a 10 mM NEAA stock (GIBCO Catalog 11140-050); 10 ml of a 200 mM L-glutamine stock (GIBCO Catalog 25030-08); 1 ml of a 50 mg/ml gentamycin sulfate stock (GIBCO Catalog 15750-0601); 150 μl of a 100 μM methotrexate Stock (Sigma Catalog M8407); 0.5 ml of a 7.5 mg/ml insulin Stock (Sigma I-6634); 50 μl of a 1 mg/ml insulin-like growth factor-stock (Long R3 Factor, Sigma Catalog No. I-1271); 2.5 grams of bovine serum albumin (Sigma Catalog No. A-7906); and 0.5 ml of a 7.5 mg/ml holo-transferrin stock (Sigma T-1283).
The CHO model cell lines are adherent cultures that have never been adapted to a serum-free environment. Accordingly, media containing serum was used to seed wells. Two formats, Overlay (O) and Wash (W) were used to introduce media containing test peptides to adhered cells.
In the O-Format, compounds were gently added on top of the seeding media on the second day. In the O-Format, 9360 cells were seeded at 1,000 cells per 96 well in a 125 μl volume of 1A media with 1.5% serum. 1A media (−serum) containing 12 mM of test peptide was overlaid 2 days later for a final peptide concentration of 6 mM and 0.75% serum. Cell culture supernatant was collected from each test environment on day 10 for later PDGF assay.
In the W-Format, compounds were added on day 2 or 3 after the seeding media was removed. In the W-Format, 9359 and 9360 cells were seeded at 6,000 cells per 96 well in a 250 μl volume of DMEM/F12 with 5% serum. Three days later, the seeding media was removed and replaced with 250 μl of 1A media (−serum) containing 6 mM test peptide. Cell culture supernatant was collected on days 5 and 12 for later PDGF assay. […]

Substance | Normalized Abs at 492 nm (relative PDGF level), MDL-400 Library | Normalized Abs at 492 nm (relative PDGF level), Follow-Up Library
16 (FKLVY; Synthetic peptide selected for biological activity) [Peptide 16] | 1.38 | –
19 (FKKKQ; Synthetic peptide selected for biological activity) [Peptide 19] | 0.79 | –
22 (FKKKK; Synthetic peptide selected for biological activity) [Peptide 22] | 0.59 | –
27 (KKPQY; Synthetic peptide selected for biological activity) [Peptide 27] | 0.55 | –
30 (KNQTY; Synthetic peptide selected for biological activity) [Peptide 30] | 0.50 | –
31 (FKKKV; Synthetic peptide selected for biological activity) [Peptide 31] | 0.49 | –
34 (HKNQT; Synthetic peptide selected for biological activity) [Peptide 34] | 0.42 | –
37 (EKKQT; Synthetic peptide selected for biological activity) [Peptide 37] | 0.38 | –
38 (EKKKK; Synthetic peptide selected for biological activity) [Peptide 38] | 0.37 | –
43 (DGKKT; Synthetic peptide selected for biological activity) [Peptide 43] | 0.32 | –
44 (KKPTT; Synthetic peptide selected for biological activity) [Peptide 44] | 0.31 | –
46 (FKKMY; Synthetic peptide selected for biological activity) [Peptide 46] | 0.28 | –
50 (DFFHK; Synthetic peptide selected for biological activity) [Peptide 50] | 0.25 | –
51 (AKKKK; Synthetic peptide selected for biological activity) [Peptide 51] | 0.25 | –
53 (AHKKK; Synthetic peptide selected for biological activity) [Peptide 53] | 0.22 | –
56 (AKKKT; Synthetic peptide selected for biological activity) [Peptide 56] | 0.20 | –
58 (HNPPY; Synthetic peptide selected for biological activity) [Peptide 58] | 0.58 | –
60 (AADEG; Synthetic peptide selected for biological activity) [Peptide 60] | 0.45 | –
63 (HHPST; Synthetic peptide selected for biological activity) [Peptide 63] | 0.33 | –
65 (ADELN; Synthetic peptide selected for biological activity) [Peptide 65] | 0.23 | –
AFFFQ (Synthetic peptide selected for biological activity) [SEQ ID NO:12] | 0.43 | –
EEEMY (Synthetic peptide selected for biological activity) [SEQ ID NO:13] | – | 1.37

same assay, conditions: library screening

Substance | effect on PDGF expression/accumulation in CHO cells (result in words)
FKFIG (Synthetic peptide selected for biological activity) [SEQ ID NO:5] | positive
KFIFG (Synthetic peptide selected for biological activity) [SEQ ID NO:45] | positive

system: MC3T3 cells; test: Oxygen biosensor assay of adherence and growth of MC3T3 cells on peptide-coated wells; type: cell-based, murine; conditions: 86 hour time point; single peptide, 50 µl of 1 mM stock dried in well; value normalized to the well's initial reading
Method: To identify peptides in a particular library which positively affected cell growth in cell culture, the library was screened in a growth assay. The selected cells were anchorage-dependent MC3T3 cells, which were grown on tissue culture surfaces which had been pre-coated with peptides of the present invention. The screening medium used to evaluate peptides in the library was a low serum medium allowing evaluation of peptide effects with low interference from undefined materials present in the medium. In the present work, growth of MC3T3 cells was assessed in the presence and absence of the peptides in the library which were present in the form of a dried film on a tissue culture substrate. Growth was evaluated in a basal medium rich in amino acids and containing the necessary vitamins, metals and simple carbon source. After an appropriate incubation time, growth of each peptide-supplemented culture is compared to growth of the unsupplemented culture. The extent of growth was evaluated using a Becton Dickinson oxygen sensor to detect oxygen consumption by the cells. The cell number in each well containing a particular peptide was then assessed indirectly with a flurometer which measured fluorescence generated from a fluoroescent dye using band-pass filters of 465 nm for excitation and 590 nm for emission.
Briefly, the oxygen biosensor is based upon the fluoroscence of ruthenium dye which is quenched in the presence of oxygen. The dye is immobilized within an inert but highly permeable silicone matrix located at the bottom of microtiter wells. […] (Wodnicka, M., Guarino, R. D., Hemperly, J. J. Temmins, M. R., Stitt, D. and Pitner, J. B. (2000) J. of Biomolecular Screening 5:141-152)
MC3T3-E1 is a clonal line of murine calvaria-derived osteoblast (establishement of a clonal osteogenic Cell Line from Newborn Mouse Calvaria in Jpn J. Oral Biol 23, 899 (1981)).
MC3T3 cells were maintained in αMEM (GIBCO Catalog No: 12561) supplemented with 2% fetal calf serum (FCS, inactivated) and 100 units or μg/ml of penicillin/streptomycin for one month prior to use. Cells were routinely seeded at a density of approximately 1×10^4 cells per 20 ml culture media which was placed in a 250 ml canted neck polystyrene tissue culture treated flask (Becton Dickinson). Cells were cultured until approximately 2×10^6 cells were obtainable from each flask, which were resuspended in 5 ml of αMEM with 2% FCS for a final cell concentration of about 5×10^4 cells per 150 μl for peptide screening.
For determining the biological effects of library peptides and appropriate controls on MC3T3 cells, cells (5×10^4/150 μl) were grown in an 96 well oxygen sensor plate treated as described below:
Peptides for screening were obtained from either a MDL-400 library or an MDL-100 library. Fifty microliters of peptides at a 1 mM stock concentration in phosphate buffered saline were placed in wells of a 96 well oxygen sensor plate and dried in a reverse flow air hood overnight […].
Vitrogen-collagen-I was obtained from Cohesion (Palo Alto, Calif., Catalog No. FXP-019) and fibronectin was obtained from Sigma (Catalog No. F-0895). All other extracellular matrix (ECM) compounds were obtained from Becton Dickinson Labware, (Bedford, Mass.). Polylysine was obtained from Becton Dickinson Labware and RGDSP-rhodamine was from AnaSpec Inc. (San Jose, Calif.). Extracellular matrix components (ECM) or known peptides were used at the following stock concentrations:
Twenty-five microliters of stock concentrations of controls and 25 μl of phosphate buffered saline were placed in wells of a 96 well oxygen sensor plate and dried overnight as described above.
Cells grown on 96 well oxygen sensor plates treated as described above were monitored for growth using a Becton Dickinson oxygen biosensor. Growth was monitored at the following time points: 1 hours, 24 hours, 32 hours, 48 hours and 86 hours. Media was changed every three days. […]

Substance | Abs at 590 nm (relative oxygen consumption), MDL-400 Library
FKFIG (Synthetic peptide selected for biological activity) [SEQ ID NO:5] | 2.27*

same assay, conditions: peptide or control adsorbed to surface; compared with uncoated surface or controls

Substance | impact on MC3T3 growth (result in words)
FKFIG (Synthetic peptide selected for biological activity) [SEQ ID NO:5] | positive; also recorded: significant difference in growth

same assay, conditions: peptide or control adsorbed to surface; compared with uncoated surface or controls; listed as FKFIG

Substance | impact on MC3T3 growth (result in words)
FKFIG (Synthetic peptide selected for biological activity) [SEQ ID NO:5] | positive

Source: patent publication US7344884B2, “Peptides promoting cell adherence, growth and secretion” (Becton, Dickinson and Company, priority 2001, dated 2008)
